Like-named read-outs stand apart in the source and are kept apart here.
Legend:
[1] = Tissue distribution in rats; type: in vivo; conditions: for concentration at 10 min: both sexes, Sprague-Dawley (SD), rat, iv, 10 min after i.v. 20 mg/kg of C118P
Protocol: Eighteen rats (weight 220–260 g) with half males and half females were randomly assigned to there groups to carry out a tissue distribution study and fasted overnight. Blood and tissue samples, including the brain, skin, muscle, fat, testicle/ovary, pancreas, spleen, kidney, stomach, small intestine, heart, liver, lung, thymus, and thighbone were collected at 10 min, 1, and 4 h after intravenous administration (20 mg/kg). Blood was centrifuged for plasma samples. Tissue samples were rinsed with water to remove the blood and blotted dry with filter paper. An accurately-weighed amount of the tissue sample (0.2 g) or the entire organ for which weight less than 0.2 g was individually homogenized with EDTA solution (40 mg/mL, 2.0 mL). The left thigh bone was crushed and then soaked overnight in methanol-EDTA solution (1:1, v/v). A volume of 50 μL of homogenate or soak solution was prepared by protein precipitation and determined by the method described above. Tissue weights were used for calculating the concentrations (ng/g) of C118P and C118 in tissues.

[2] = Metabolic stability in liver microsomes; type: in vitro ADME, mice
Protocol: The in vitro metabolic stability of C118P and C118 were estimated in mice, rat, dog, monkey, and human liver microsomes (Research Institute for Liver Diseases Co. Ltd (Shanghai, China)). The incubation mixture contains C118P or C118, NADP (1.0 mM), G-6-P (10 mM), PDH (2 units/mL), MgCl2 (10 mM), and liver microsomes (mice, rats, dogs, monkeys, or humans, 1.0 mg protein/mL) in phosphate buffer. A total of 200 μL of the mixture was removed and quenched with 600 μL acetonitrile in an ice bath at 0, 15, 30, 60, 120, and 240 min after the addition of NADPH.
CLint, in vitro (the in vitro intrinsic clearance, Equation (1)) was calculated from the t1/2 of C118 disappearance, where Cprotein is the protein concentration during the incubation, and t1/2 was determined by the slope (k) of the log-linear regression analysis of the concentration versus time profiles; thus, t1/2 = ln2/k. […] The in vivo hepatic clearance (CLH, Equation (3)) was then calculated by using CLint and hepatic blood flow, Q ([…] mL·min^−1·kg^−1 in rats, dogs, monkey, and humans, respectively), in the well-stirred liver model disregarding all binding. The hepatic extraction ratio was calculated as CLH divided by Q. CLint, in vitro = (0.693/t1/2) × (1/Cprotein)(1) CLint = CLint, in vitro × (mg protein/g liver weight) × (gliver weight/kg body weight)(2) CLH = (Q × CLint)/(Q + CLint)(3)

[3] = Plasma protein binding by ultrafiltration; type: in vitro ADME; conditions: human plasma, read-out: fu (fraction unbound)
Protocol: Both C118P and C118 were stable in the plasma with EDTA as anticoagulant. The non-specific binding to the ultrafilter membrane was negligible. The extent of plasma protein binding was reported as a fraction unbound (fu, %) value which was calculated using the formula fu = PF/TC × 100%, where TC is test compound (C118P or C118) concentration in sample before ultrafiltration, and PF is the test compound concentration in the ultrafiltrate (Table 1).
Plasma protein binding of C118P and C118 were determined by ultrafiltration at four concentrations (C118P: 400, 4000, 40,000, and 400,000 ng/mL, C118: 20, 200, 2000, and 20,000 ng/mL) in pooled plasma from Sprague-Dawley rats, beagle dogs, and humans. Stock solutions of C118P and C118 dissolved in methanol were diluted with blank plasma to achieve the test concentrations (the methanol volume is less than 10% of the plasma). The plasma was incubated for 1 h in a water bath at 37 °C. The total concentration of C118P and C118 of spiked plasma (TC) was analyzed by previously described methods. Ultrafiltration was performed with activated high speed centrifugal tubes (Millipore, Burlington, MA, USA). Plasma samples (0.4 mL) were added to the upper layer of the high speed centrifugal tubes, and then centrifuged at 12,000 g for 10 min. The concentration of unbound C118P and C118 in filtrate (PF) was similarly determined by the previously described methods. The percentage of free fraction (fu) of C118P and C118 was calculated as follows: fu = (PF/TC) × 100%.

[4] = PK in dogs after i.v. C118P; type: in vivo, beagle dogs; conditions: plasma; for concentration at 2 min / AUC(0-inf) / half-life / clearance: both sexes, beagle, dog; for concentration at 2 min: read-out: C2min; for AUC(0-inf) / half-life / clearance: iv
Protocol: The beagle dogs were purchased from Nanjing Ya Dong experimental animal research center. Twelve beagle dogs with half males and half females were divided randomly into two groups. C118P was dissolved in saline to different concentrations for intravenous administration. After fasting overnight with free access to water, the dogs were administered a single intravenous dose of 1 or 3 mg/kg C118P. After a one-week wash-out period, the group of 1 mg/kg were administered another single intravenous dose of 6 mg/kg C118P. Blood samples (approximately 1 mL) were collected in EDTA-coated tubes at times of 0, 2, 5, 10, 20, 40 min, 1, 2, 4, 8, 12 and 24 h. Plasma was prepared by centrifugation at 8000 rpm for 5 min, and the plasma samples were then prepared and determined by the method described above.
The area under the plasma-concentration-versus-time curve from 0 to infinite (AUC0-inf), the elimination half-life (t1/2), the systemic plasma clearance (CL) and the volume of distribution (V) were calculated by non-compartmental analysis with WinNonlin software v6.3 (Pharsight Corporation, St. Louis, MO 63144, USA) from the plasma concentration data of C118P and C118, respectively. The instantaneous concentrations after intravenous to rats (C30s) or dogs (C2min) were obtained directly from the observed data.

[5] = dogs, i.v. C118P 1 mg/kg, n = 6
[6] = dogs, i.v. C118P 3 mg/kg, n = 6
[7] = dogs, i.v. C118P 6 mg/kg, n = 6
[8] = in vivo, dogs, i.v. C118P 1 mg/kg, n = 6
[9] = in vivo, dogs, i.v. C118P 3 mg/kg, n = 6
[10] = in vivo, dogs, i.v. C118P 6 mg/kg, n = 6

For COc1cc(OC)cc(-c2nc[nH]c2-c2ccc(OC)c(O)c2)c1 [C118], the “tissue concentration in most tissues” value ([1]; 4 h after i.v. 20 mg/kg of C118P, LLOQ 50 ng/g for tissues) was “below or slightly higher than LLOQ”, the concentration at 10 min ([1]; heart, read-out: tissue concentration in heart) was 6340 ± 4130 ng/g and the concentration at 10 min ([1]; kidney, read-out: tissue concentration in kidney) was 7640 ± 3410 ng/g. For the same compound, the concentration at 10 min ([1]; lung, read-out: tissue concentration in lung) was 12900 ng/g, the “CLint, in vitro” value ([2]; mice liver microsomes) was 44.7 μL·min^−1·mg^−1 Protein and the CLint ([2]; mice, scaled from CLint, in vitro) was 115.3 mL/min/kg. The half-life ([2]; mouse, mice liver microsomes, 1.0 mg protein/mL, C118 disappearance) was 15.5 min, the fraction unbound at 1 h, 200 ng/mL ([3]; pooled plasma, C118 200 ng/mL) was 0.028 ± 0.002 and the fraction unbound at 1 h, 2000 ng/mL ([3]; pooled plasma, C118 2000 ng/mL) was 0.047 ± 0.002. For the same compound, the fraction unbound at 1 h, 20000 ng/mL ([3]; pooled plasma, C118 20,000 ng/mL) was 0.038 ± 0.002, the concentration at 2 min ([4]; intravenous, dogs, i.v. C118P 1 mg/kg, n = 6) was 252 ± 70.5 ng/mL and the concentration at 2 min ([4]; intravenous, dogs, i.v. C118P 3 mg/kg, n = 6) was 861 ± 259 ng/mL. The concentration at 2 min ([4]; intravenous, dogs, i.v. C118P 6 mg/kg, n = 6) was 1700 ± 509 ng/mL, the AUC(0-inf) [4, 5] was 214 ± 79 ng·h/mL and the half-life [4, 5] was 29.4 ± 10.8 min. The AUC(0-inf) [4, 6] was 910 ± 295 ng·h/mL, the half-life [4, 6] was 63 ± 16.2 min and the AUC(0-inf) [4, 7] was 1830 ± 320 ng·h/mL. The half-life [4, 7] was 50.4 ± 15 min and the clearance ([4]; in vivo, compared with extrapolated CLH, read-out: Observed CL) was 54 mL/min/kg.
In the case of COc1cc(OC)cc(-c2nc[nH]c2-c2ccc(OC)c(OP(=O)([O-])[O-])c2)c1.[Na+].[Na+] [C118P], the tissue concentration ([1]; 10 min, 1 h and 4 h after i.v. 20 mg/kg of C118P, LLOQ 50 ng/g for tissues) is reported as “below or slightly higher than the LLOQ”, the “stability in liver microsomes” value ([2]; mice liver microsomes (Figure S1)) is reported as “quite stable” and the fraction unbound at 1 h, 400 ng/mL ([3]; C118P 400 ng/mL) is reported as 0.022 ± 0.001. For the same compound, the fraction unbound at 1 h, 4000 ng/mL ([3]; C118P 4000 ng/mL) was 0.027, the fraction unbound at 1 h, 40000 ng/mL ([3]; C118P 40,000 ng/mL) was 0.022 ± 0.001 and the fraction unbound at 1 h, 400000 ng/mL ([3]; C118P 400,000 ng/mL) was 0.057 ± 0.004. It also gave an AUC(0-inf) [4, 8] of 1700 ± 346 ng·h/mL, a half-life [4, 8] of 13.2 ± 5.4 min and a clearance ([4]; in vivo, dogs, i.v. C118P 1 mg/kg, n = 6, read-out: CL (converted)) of 10.2 mL/min/kg. The AUC(0-inf) [4, 9] was 5300 ± 1700 ng·h/mL, the half-life [4, 9] was 35.4 ± 9.6 min and the clearance ([4]; in vivo, dogs, i.v. C118P 3 mg/kg, n = 6, read-out: CL (converted)) was 10.1 mL/min/kg. For the same compound, the AUC(0-inf) [4, 10] was 8530 ± 1550 ng·h/mL, the half-life [4, 10] was 23.4 ± 7.2 min and the clearance ([4]; in vivo, dogs, i.v. C118P 6 mg/kg, n = 6, read-out: CL (converted)) was 12.1 mL/min/kg. The concentration at 2 min [4, 8] was 12300 ng/mL, the concentration at 2 min [4, 9] was 34700 ng/mL and the concentration at 2 min [4, 10] was 64200 ng/mL. It also gave a V [4, 5] of 0.1817 ± 0.0513 L/kg, a V [4, 6] of 0.5092 ± 0.162 L/kg and a V [4, 7] of 0.3985 ± 0.0871 L/kg.
